# Assay results taken from patent publication US20240383875A1, “Benzimidazole Pyridine Derivatives” (Hoffmann-La Roche Inc., priority 2022, published 2024).
# Legend:
# Type in all cases: biochemical
# SIK3 = SIK3 (Homo sapiens, UniProt Q9Y2K2); experiment: Enzymatic activity assay SIK3, RapidFire mass spectrometry (phosphorylation of CHK-peptide); details: RapidFire MS, inhibition of SIK3; read-out: SIK3 RF IC50
# Protocol: (§1) Assay description SIK1-3, RapidFire:
# (§2) In the presence of SIK2 (resp. SIK1 or SIK3) and ATP the CHK-peptide ([…] with C-terminal arginine amide modification) were phosphorylated at one of the four feasible serine's. Only one phosphorylation is observed under the assay conditions. 60 nl of each compound dilution series (12 point; dilution factor 3, generally 30 μM to 170 pM) in DMSO were transferred by acoustic dispensing to the assay plate and 30 min pre-incubated (ambient temperature) after the addition of 5 μl SIK1 (5 nM) resp. 5 μl SIK2 (0.5 nM) or 7 μl SIK3 (1.5 nM) in assay-buffer (12.5 mM HEPES (pH 7.0), 10 mM magnesium acetate, 0.005% BSA). 10 μM CHK-peptide solution and 5 μl 100 μM ATP for SIK1 & SIK2 resp. 3 μl for SIK3 in assay-buffer were added and incubated ambient for 45 min. 40 μl 0.125% formic acid in water were added to quench the reaction. RapidFire (RF) Mass Spectrometry was utilized for data generation as described below. The multiple charged species (3-5 charges) for the phosphorylated and non-phosphorylated form measured by MRM (Multiple Reaction Monitoring; API5000 or 6500+) or EIC (Extracted Ion Current; QToF) were summed up and the ratio calculated (sum phosphorylated species/sum all species) for data evaluation. Normalization was performed by Genedata software based on the non-inhibition control DMSO and the commercially available SIK inhibitor @ 1 μM YKL-05-099 (CAS number 1936529-65-5). The results of the assay are expressed in half-maximal inhibitory concentrations (IC50s) and are summarized below in Table 1.
# (§3) Samples were aspirated by vacuum for max. 600 ms and loaded to C4-cartridge (Agilent; #G9203A) for 3000 ms@1.5 ml/min with 0.1% formic acid in water. Afterwards samples were transferred to the APT5000 (APT6500+) or QToF mass spectrometer for 4000 ms@1.25 ml/min with 90% acetonitrile; 10% water; 0.007% TFA; 0.093 formic acid. The cartridge was reconditioned for additional 500 ms with 0.1% formic acid in water
# (§4) All MS analyses using the following MS-setup in MRM mode: Electrospray positive; Ion Spray Voltage: 4000V; Temperature: 550° C.; Collision Gas: 5; Curtain Gas: 15; Gas1: 40; Gas 2: 42; EP: 10
# (§5) MS-Setup Agilent QToF 6545
# (§6) All MS analyses using the following MS-setup in Mode MS: Dual AJS Electrospray positive; VCap: 3000V; Drying & Sheath gas: 340° C.@81/min; Nebulizer: 60 psig; Nozzle Voltage: 2000V; Fragmentor: 130V; Skimmer: 35V; Oct1 RF Vpp: 700V; Ref masses on@5spectra/s
# SIK1 = SIK1 (Homo sapiens, UniProt P57059); experiment: Enzymatic activity assay SIK1, RapidFire mass spectrometry (phosphorylation of CHK-peptide); details: RapidFire MS, inhibition of SIK1; read-out: SIK1 RF IC50
# Protocol: as §1, §2, §3, §4, §5, §6
# SIK2 = SIK2 (Homo sapiens, UniProt Q9H0K1); experiment: Enzymatic activity assay SIK2, RapidFire mass spectrometry (phosphorylation of CHK-peptide); details: RapidFire MS, inhibition of SIK2; read-out: SIK2 RF IC50
# Protocol: as §1
# as §2, with “Only one phosphorylation is observed under the assay conditions. 60 nl of each compound dilution series (12 point; dilution factor 3, generally 30 μM to 170 pM) in DMSO were transferred by acoustic dispensing to the assay plate and 30 min pre-incubated (ambient temperature) after the addition of 5 μl SIK1 (5 nM) resp.” left out, “1936529-65-5).” for “1936529-65-5). The results of the assay are expressed in half-maximal inhibitory concentrations (IC50s) and are summarized below in Table 1.”
# as §3, §4, §5, §6
# Sequence of SIK1 (P57059 whole entry): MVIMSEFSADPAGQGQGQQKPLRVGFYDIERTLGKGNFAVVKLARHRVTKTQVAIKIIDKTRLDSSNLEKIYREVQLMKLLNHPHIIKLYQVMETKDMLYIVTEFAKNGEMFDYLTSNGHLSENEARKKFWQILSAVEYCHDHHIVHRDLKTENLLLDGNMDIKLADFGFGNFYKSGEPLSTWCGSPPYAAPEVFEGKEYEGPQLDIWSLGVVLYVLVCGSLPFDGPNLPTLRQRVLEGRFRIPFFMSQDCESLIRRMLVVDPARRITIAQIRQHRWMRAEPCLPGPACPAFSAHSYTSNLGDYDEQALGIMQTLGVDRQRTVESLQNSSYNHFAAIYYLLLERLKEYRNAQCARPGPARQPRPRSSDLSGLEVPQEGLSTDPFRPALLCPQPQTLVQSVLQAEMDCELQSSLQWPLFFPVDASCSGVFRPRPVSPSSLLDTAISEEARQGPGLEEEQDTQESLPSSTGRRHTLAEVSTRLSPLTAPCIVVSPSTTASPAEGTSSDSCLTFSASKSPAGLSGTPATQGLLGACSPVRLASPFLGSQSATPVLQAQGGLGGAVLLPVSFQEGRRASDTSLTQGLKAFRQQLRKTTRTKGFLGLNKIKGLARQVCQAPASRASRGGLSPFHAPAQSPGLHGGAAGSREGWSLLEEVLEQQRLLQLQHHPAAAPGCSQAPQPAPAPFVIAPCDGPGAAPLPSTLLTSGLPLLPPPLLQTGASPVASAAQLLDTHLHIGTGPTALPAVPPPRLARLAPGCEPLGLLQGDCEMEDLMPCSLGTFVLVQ
# Sequence of SIK3 (Q9Y2K2 whole entry): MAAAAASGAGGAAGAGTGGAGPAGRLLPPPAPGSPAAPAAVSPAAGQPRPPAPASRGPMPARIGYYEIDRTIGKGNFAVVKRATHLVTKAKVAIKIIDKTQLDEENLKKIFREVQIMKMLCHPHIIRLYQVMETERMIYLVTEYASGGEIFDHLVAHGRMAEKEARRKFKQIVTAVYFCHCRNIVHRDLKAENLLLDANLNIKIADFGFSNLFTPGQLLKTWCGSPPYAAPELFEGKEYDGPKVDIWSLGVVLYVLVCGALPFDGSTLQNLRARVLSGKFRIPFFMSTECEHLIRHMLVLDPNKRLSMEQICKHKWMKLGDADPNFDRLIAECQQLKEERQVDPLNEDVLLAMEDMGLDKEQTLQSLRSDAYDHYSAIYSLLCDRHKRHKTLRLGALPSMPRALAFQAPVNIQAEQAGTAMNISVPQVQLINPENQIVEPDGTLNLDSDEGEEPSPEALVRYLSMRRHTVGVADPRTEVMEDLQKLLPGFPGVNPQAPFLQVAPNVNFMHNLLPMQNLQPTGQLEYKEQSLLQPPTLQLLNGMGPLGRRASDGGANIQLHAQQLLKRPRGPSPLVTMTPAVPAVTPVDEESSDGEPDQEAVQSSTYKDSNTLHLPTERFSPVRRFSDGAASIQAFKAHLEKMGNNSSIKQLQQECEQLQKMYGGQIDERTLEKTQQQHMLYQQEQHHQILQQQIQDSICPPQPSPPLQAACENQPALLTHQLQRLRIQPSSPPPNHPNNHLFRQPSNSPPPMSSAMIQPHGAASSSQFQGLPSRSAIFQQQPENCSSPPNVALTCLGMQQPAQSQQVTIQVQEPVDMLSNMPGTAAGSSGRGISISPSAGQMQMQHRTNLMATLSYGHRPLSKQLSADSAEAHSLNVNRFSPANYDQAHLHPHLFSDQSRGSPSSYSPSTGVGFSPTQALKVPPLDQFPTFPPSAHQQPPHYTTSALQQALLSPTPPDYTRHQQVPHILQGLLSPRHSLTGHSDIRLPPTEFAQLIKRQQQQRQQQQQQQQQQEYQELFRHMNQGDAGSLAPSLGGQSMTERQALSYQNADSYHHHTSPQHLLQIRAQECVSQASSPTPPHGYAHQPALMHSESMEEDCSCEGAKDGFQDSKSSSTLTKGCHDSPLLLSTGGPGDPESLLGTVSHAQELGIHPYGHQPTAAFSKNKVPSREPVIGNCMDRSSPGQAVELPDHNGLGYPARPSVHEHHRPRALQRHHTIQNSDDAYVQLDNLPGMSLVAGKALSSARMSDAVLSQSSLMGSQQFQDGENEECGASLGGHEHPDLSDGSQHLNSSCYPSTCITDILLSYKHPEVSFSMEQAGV
# Sequence of SIK2 (Q9H0K1 whole entry): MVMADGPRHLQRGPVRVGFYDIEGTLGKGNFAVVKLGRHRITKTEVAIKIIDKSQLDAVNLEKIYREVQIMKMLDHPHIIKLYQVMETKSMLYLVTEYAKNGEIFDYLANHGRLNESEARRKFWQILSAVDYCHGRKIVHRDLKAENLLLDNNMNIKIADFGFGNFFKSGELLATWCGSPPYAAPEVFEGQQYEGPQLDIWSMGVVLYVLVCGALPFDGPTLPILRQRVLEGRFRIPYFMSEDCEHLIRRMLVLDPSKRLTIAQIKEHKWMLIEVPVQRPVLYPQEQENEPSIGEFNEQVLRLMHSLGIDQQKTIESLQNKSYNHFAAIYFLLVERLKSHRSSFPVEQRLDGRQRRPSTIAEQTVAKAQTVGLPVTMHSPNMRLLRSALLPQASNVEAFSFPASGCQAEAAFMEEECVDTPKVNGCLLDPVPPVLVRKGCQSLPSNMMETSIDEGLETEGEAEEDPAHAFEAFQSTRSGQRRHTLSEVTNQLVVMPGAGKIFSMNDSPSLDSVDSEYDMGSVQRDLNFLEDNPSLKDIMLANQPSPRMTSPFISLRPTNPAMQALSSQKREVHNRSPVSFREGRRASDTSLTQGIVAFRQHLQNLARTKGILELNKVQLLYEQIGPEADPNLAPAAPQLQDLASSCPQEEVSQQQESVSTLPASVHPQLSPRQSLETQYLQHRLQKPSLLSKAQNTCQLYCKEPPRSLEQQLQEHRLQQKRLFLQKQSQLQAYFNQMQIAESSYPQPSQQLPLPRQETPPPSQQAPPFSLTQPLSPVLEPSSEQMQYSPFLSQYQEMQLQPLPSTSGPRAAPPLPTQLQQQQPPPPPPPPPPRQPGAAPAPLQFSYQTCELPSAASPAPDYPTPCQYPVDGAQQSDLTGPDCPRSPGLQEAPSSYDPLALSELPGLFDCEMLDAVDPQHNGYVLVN
IC50 (SIK3) [nM],IC50 (SIK1) [nM],IC50 (SIK2) [nM],Compound
713,326,268,"COc1cc2ncn(-c3ccc(CO)c(N4CCCCC4)n3)c2cc1OC [Example 28, (6-(5,6-Dimethoxy-1H-benzo[d]imidazol-1-yl)-2-(piperidin-1-yl)pyridin-3-yl)methanol]"
1400,373,259,"COc1cc2ncn(-c3ccc(CO)c(NCCCCCO)n3)c2cc1OC [Example 32, 5-((6-(5,6-Dimethoxy-1H-benzo[d]imidazol-1-yl)-3-(hydroxymethyl)pyridin-2-yl)amino)pentan-1-ol]"
1940,320,402,"COc1cc2ncn(-c3ccc(CO)c(N4CCCC4=O)n3)c2cc1OC [Example 33, 1-(6-(5,6-Dimethoxy-1H-benzo[d]imidazol-1-yl)-3-(hydroxymethyl)pyridin-2-yl)pyrrolidin-2-one]"
1680,508,377,"COc1cc2ncn(-c3ccc(CO)c(NCCCCO)n3)c2cc1OC [Example 34, 4-((6-(5,6-Dimethoxy-1H-benzo[d]imidazol-1-yl)-3-(hydroxymethyl)pyridin-2-yl)amino)butan-1-ol]"
7470,13400,6080,"COc1cc2ncn(-c3ccc([C@H](C)O)c(-c4ccccc4C(N)=O)n3)c2cc1OC [Example 35, (S)-2-(6-(5,6-Dimethoxy-1H-benzo[d]imidazol-1-yl)-3-(l-hydroxyethyl)pyridin-2-yl)benzamide]"
13600,23900,9680,"COc1cc2ncn(-c3ccc([C@@H](C)O)c(-c4ccccc4C(N)=O)n3)c2cc1OC [Example 36, (R)-2-(6-(5,6-Dimethoxy-1H-benzo[d]imidazol-1-yl)-3-(1-hydroxyethyl)pyridin-2-yl)benzamide]"
22.4,15,4.9,"COc1cc2ncn(-c3ccc([C@H](C)O)c(-c4cccc(C#N)c4)n3)c2cc1OC [Example 37, (S)-3-(6-(5,6-Dimethoxy-1H-benzo[d]imidazol-1-yl)-3-(l-hydroxyethyl)pyridin-2-yl)benzonitrile]"
259,158,58.4,"COc1cc2ncn(-c3ccc([C@@H](C)O)c(-c4cccc(C#N)c4)n3)c2cc1OC [Example 38, (R)-3-(6-(5,6-Dimethoxy-1H-benzo[d]imidazol-1-yl)-3-(l-hydroxyethyl)pyridin-2-yl)benzonitrile]"
178,152,24.9,"COc1cc2ncn(-c3ccc([C@H](C)O)c(-c4ccc(C#N)cc4)n3)c2cc1OC [Example 39, (S)-4-(6-(5,6-Dimethoxy-1H-benzo[d]imidazol-1-yl)-3-(l-hydroxyethyl)pyridin-2-yl)benzonitrile]"
1660,1030,517,"COc1cc2ncn(-c3ccc([C@@H](C)O)c(-c4ccc(C#N)cc4)n3)c2cc1OC [Example 40, (R)-4-(6-(5,6-Dimethoxy-1H-benzo[d]imidazol-1-yl)-3-(1-hydroxyethyl)pyridin-2-yl)benzonitrile]"
300,197,91.7,"COc1cc2ncn(-c3ccc([C@H](C)O)c(-c4ccn(C)c(=O)c4)n3)c2cc1OC [Example 41, (S)-6-(5,6-Dimethoxy-1H-benzo[d]imidazol-1-yl)-3-(1-hydroxyethyl)-1′-methyl-[2,4′-bipyridin]-2′(1′H)-one]"
2060,1300,1040,"COc1cc2ncn(-c3ccc([C@@H](C)O)c(-c4ccn(C)c(=O)c4)n3)c2cc1OC [Example 42, (R)-6-(5,6-Dimethoxy-1H-benzo[d]imidazol-1-yl)-3-(1-hydroxyethyl)-1′-methyl-[2,4′-bipyridin]-2′(1′H)-one]"
405,2150,320,"CC(O)c1ccc(-n2cnc3cc(OCCN4CCOCC4)ccc32)nc1Oc1ccccc1 (stereo not drawn) [Example 53, 1-[6-[5-(2-Morpholinoethoxy)benzimidazol-1-yl]-2-phenoxy-3-pyridyl]ethanol]"
130,1290,103,"CC(O)c1ccc(-n2cnc3cc(OCCN4CCOCC4)ccc32)nc1Nc1ccccc1 (stereo not drawn) [Example 55, 1-[2-Anilino-6-[5-(2-morpholinoethoxy)benzimidazol-1-yl]-3-pyridyl]ethanol]"
176,1670,189,"CC(O)c1ccc(-n2cnc3cc(OCCN4CCOCC4)ccc32)nc1-n1ccc(C(F)(F)F)n1 (stereo not drawn) [Example 62, 1-[6-[5-(2-Morpholinoethoxy)benzimidazol-1-yl]-2-[3-(trifluoromethyl)pyrazol-1-yl]-3-pyridyl]ethanol]"
152,93,34.6,"COc1cc2ncn(-c3ccc(C(C)O)c(-n4ccc(C(F)(F)F)n4)n3)c2cc1OC (stereo not drawn) [Example 63, 1-[6-(5,6-Dimethoxybenzimidazol-1-yl)-2-[3-(trifluoromethyl)pyrazol-1-yl]-3-pyridyl]ethanol]"
81.9,652,63.7,"Cc1cc(C#N)nn1-c1nc(-n2cnc3cc(N4CCN(C)CC4)ccc32)ccc1C(C)O (stereo not drawn) [Example 65, 1-[3-(1-Hydroxyethyl)-6-[5-(4-methylpiperazin-1-yl)benzimidazol-1-yl]-2-pyridyl]-5-methyl-pyrazole-3-carbonitrile]"
97.9,767,132,"Cc1cc(C#N)nn1-c1nc(-n2cnc3cc(N4CCN(C5COC5)CC4)ccc32)ccc1C(C)O (stereo not drawn) [Example 67, 1-[3-(1-Hydroxyethyl)-6-[5-[4-(oxetan-3-yl)piperazin-1-yl]benzimidazol-1-yl]-2-pyridyl]-5-methyl-pyrazole-3-carbonitrile]"
29.7,179,27.7,"Cc1cc(C#N)nn1-c1nc(-n2cnc3cc(OCCN4CCOCC4)ccc32)ccc1C(C)O (stereo not drawn) [Example 68, 1-[3-(1-Hydroxyethyl)-6-[5-(2-morpholinoethoxy)benzimidazol-1-yl]-2-pyridyl]-5-methyl-pyrazole-3-carbonitrile]"
2.2,5,1.4,"Cc1cc(C#N)nn1-c1nc(-n2cnc3cc(Nc4cnn(C5COC5)c4)ccc32)ccc1C(C)O (stereo not drawn) [Example 71, 1-[3-(1-Hydroxyethyl)-6-[5-[[1-(oxetan-3-yl)pyrazol-4-yl]amino]benzimidazol-1-yl]-2-pyridyl]-5-methyl-pyrazole-3-carbonitrile]"
2.1,5,1,"Cc1cc(C#N)nn1-c1nc(-n2cnc3cc(Nc4cnn(C5CNC5)c4)ccc32)ccc1C(C)O (stereo not drawn) [Example 72, 1-[6-[5-[[1-(Azetidin-3-yl)pyrazol-4-yl]amino]benzimidazol-1-yl]-3-(1-hydroxyethyl)-2-pyridyl]-5-methyl-pyrazole-3-carbonitrile]"
190,45,36.6,"Cc1ccc(Oc2ccc3ncn(-c4ccc(C(C)O)c(-n5nc(C#N)cc5C)n4)c3c2)nn1 (stereo not drawn) [Example 74, 1-[3-(1-Hydroxyethyl)-6-[6-(6-methylpyridazin-3-yl)oxybenzimidazol-1-yl]-2-pyridyl]-5-methyl-pyrazole-3-carbonitrile]"
